Test results published in patent publication US20120004180A1, “METHOD OF PRODUCING A NOVEL OPIOID PEPTIDE” (priority 2008, published 2012).

Tests used:
[1] = system: acute pain in mice with inflammation; test: Tail immersion in water heated to 55° C. in murine melanoma metastasis model with inflammation; format: in vivo; conditions: two weeks after murine melanoma cells into the hind limb, intraperitoneal injection 30 mg/kg
Experimental: In an animal metastasis model, inflammation was induced by administering around a million cells of murine melanoma into the hind limb. After two days, a progressing inflammation was observed, elicited by tumour take. After two weeks of tumour development, the analgesic activity of (N′-Tyrosyl-D-alanyl-glycyl-phenylalanyl, N″-salicyl-glycyl-D-tryptophanyl)-hydrazide was examined against acute pain caused by tail immersion in water heated to 55° C.

thermal pain = test: Thermal pain sensitivity after subarachnoid administration via cannula; format: in vivo; conditions: rats, dose of 5 mg
Excerpt: Two days prior to the experiments, rats were implanted with cannulae into the subarachnoid cavity. During the experiment, the analgesic activity was examined by administering the peptide analogue (N′-Tyrosyl-D-alanyl-glycyl-phenylalanyl, N″-alpha-methyl-4-(2-methylpropyl) benzenoacetyl-D-tryptophanyl)-hydrazide.

pain = conditions: experiments on animals; intrathecal application in rats; cited from earlier work
physical dependence = conditions: compared with morphine; cited from earlier work
[2] = system: acute pain in mice with inflammation; test: Tail immersion in water at 55° C. in mice with Freund's adjuvant-induced inflammation; format: in vivo; conditions: one week after Freund's adjuvant into the limb, intravenous injection 20 mg/kg
Experimental: Inflammation was induced in mice through application of Freund's adjuvant into the limb. A progressing inflammation was observed after two days. After a week, the analgesic effects on acute pain of the peptide analogue HCl.Tyr-D-Ala-Gly-Phe-NHNH-(CBz-D-Trp-) were examined via the immersion of the tail in water at 55° C.

(N′-Tyrosyl-D-alanyl-glycyl-phenylalanyl, N″-salicyl-glycyl-D-tryptophanyl)-hydrazide [Example II]
pain reaction (analgesic activity against acute pain, tail immersion) [1]: completely mitigated

(N′-Tyrosyl-D-alanyl-glycyl-phenylalanyl, N″-alpha-methyl-4-(2-methylpropyl) benzenoacetyl-D-tryptophanyl)-hydrazide [Example III]
duration of elimination of sensitivity to thermal pain (thermal pain): 1 h | sensitivity to thermal pain (thermal pain): complete elimination

C[C@@H](NC(=O)[C@@H](N)Cc1ccc(O)cc1)C(=O)NCC(=O)N[C@@H](Cc1ccccc1)C(=O)NNC(=O)[C@H](Cc1ccccc1)NC(=O)CNC(=O)[C@@H](C)NC(=O)[C@@H](N)Cc1ccc(O)cc1 [biphalin]
analgesic activity (pain): significant analgesic activity | habit-forming activity (physical dependence) (physical dependence): much lesser habit-forming activity

(N′-tyrosyl-D-alanyl-glycyl-phenylalanyl, N″-benzoxycarbonyl-D-tryptophanyl) hydrazide [Example I]
pain reaction (analgesic effect on acute pain, tail immersion) [2]: completely mitigated
